Test results: patent publication US9226916B2, “Pyrrolidine derivatives” (HOFFMANN-LA ROCHE INC., priority 2009, dated 2016)

These molecules were tested against T1, recombinant human NK3 receptor (Homo sapiens, UniProt P29371) (assay: [3H]SR142801 competition binding assay). Conditions: not given.
T1 construct: expressed in transfected cells; host or cells: HEK293 cells, transient expression; membranes
T1 sequence (P29371 1-465): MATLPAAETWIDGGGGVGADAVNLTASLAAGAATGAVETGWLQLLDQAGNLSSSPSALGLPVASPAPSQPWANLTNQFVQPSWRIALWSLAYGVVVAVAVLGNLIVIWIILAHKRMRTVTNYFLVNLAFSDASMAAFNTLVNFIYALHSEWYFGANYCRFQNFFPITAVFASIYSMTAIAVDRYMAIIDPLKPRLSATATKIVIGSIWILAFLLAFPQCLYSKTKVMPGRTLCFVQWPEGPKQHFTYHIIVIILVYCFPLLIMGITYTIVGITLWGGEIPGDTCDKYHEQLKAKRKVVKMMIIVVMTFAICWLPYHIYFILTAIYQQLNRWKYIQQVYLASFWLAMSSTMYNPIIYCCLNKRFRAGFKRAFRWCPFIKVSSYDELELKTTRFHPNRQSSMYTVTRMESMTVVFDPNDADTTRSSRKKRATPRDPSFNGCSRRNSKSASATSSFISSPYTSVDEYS

Row | Compound | Ki [nM]
1 | Cc1ccc(N2CCC(C(=O)N3C[C@@H](N(C)C(=O)Oc4ccc(F)cc4)[C@H](c4ccc(Cl)cc4)C3)CC2)nc1 [Example 194, [(3S,4R)-4-(4-Chloro-phenyl)-1-(5′-methyl-3,4,5,6-tetrahydro-2H-[1,2′]bipyridinyl-4-carbonyl)-pyrrolidin-3-yl]-methyl-carbamic acid 4-fluoro-phenyl ester] | 3.5
2 | CN(C(=O)Oc1ccc(F)cc1)[C@H]1CN(C(=O)C2CCN(C(=O)C3(C)CC3)CC2)C[C@@H]1c1ccc(Cl)cc1 (racemic) [Example 26, rac-{(3R,4S)-4-(4-Chloro-phenyl)-1-[1-(1-methyl-cyclopropanecarbonyl)-piperidine-4-carbonyl]-pyrrolidin-3-yl}-methyl-carbamic acid 4-fluoro-phenyl ester] | 2.9
3 | CN(C(=O)Oc1ccc(F)cc1)[C@@H]1CN(C(=O)C2CCN(c3ccc(Cl)cn3)CC2)C[C@H]1c1ccc(F)c(Cl)c1 [Example 316, [(3S,4R)-4-(3-Chloro-4-fluoro-phenyl)-1-(5′-chloro-3,4,5,6-tetrahydro-2H-[1,2′]bipyridinyl-4-carbonyl)-pyrrolidin-3-yl]-methyl-carbamic acid 4-fluoro-phenyl ester] | 0.9
4 | CN(C(=O)Oc1ccc(F)cc1)[C@@H]1CN(C(=O)C2CCN(c3ccc(C#N)nn3)CC2)C[C@H]1c1ccc(Cl)cc1 [Example 140, {(3S,4R)-4-(4-Chloro-phenyl)-1-[1-(6-cyano-pyridazin-3-yl)-piperidine-4-carbonyl]-pyrrolidin-3-yl}-methyl-carbamic acid 4-fluoro-phenyl ester] | 0.9
5 | CN(C(=O)Oc1ccc(F)cc1)[C@H]1CN(C(=O)C2CCN(CC3CC3)CC2)C[C@@H]1c1ccc(Cl)c(Cl)c1 (racemic) [Example 4, rac-[(3R,4S)-1-(1-Cyclopropylmethyl-piperidine-4-carbonyl)-4-(3,4-dichloro-phenyl)-pyrrolidin-3-yl]-methyl-carbamic acid 4-fluoro-phenyl ester] | 1.8
6 | COc1cnc(N2CCC(C(=O)N3C[C@@H](N(C)C(=O)Oc4ccc(F)cc4)[C@H](c4ccc(Cl)cc4)C3)CC2)nc1 [Example 190, {(3S,4R)-4-(4-Chloro-phenyl)-1-[1-(5-methoxy-pyrimidin-2-yl)-piperidine-4-carbonyl]-pyrrolidin-3-yl}-methyl-carbamic acid 4-fluoro-phenyl ester] | 17.2
7 | CN(C(=O)Oc1ccc(F)cc1)[C@@H]1CN(C(=O)C2CCN(C(=O)C3CCC3)CC2)C[C@H]1c1ccc(Cl)c(Cl)c1 [Example 265, [(3S,4R)-1-(1-Cyclobutanecarbonyl-piperidine-4-carbonyl)-4-(3,4-dichloro-phenyl)-pyrrolidin-3-yl]-methyl-carbamic acid 4-fluoro-phenyl ester] | 0.6
8 | CN(C(=O)Oc1ccc(F)cc1)[C@@H]1CN(C(=O)C2CCN(C3CCS(=O)(=O)C3)CC2)C[C@H]1c1ccc(Cl)cc1 (stereo partly drawn) [Example 115, {(3S,4R)-4-(4-Chloro-phenyl)-1-[1-(1,1-dioxo-tetrahydro-1λ^6-thiophen-3-yl)-piperidine-4-carbonyl]-pyrrolidin-3-yl}-methyl-carbamic acid 4-fluoro-phenyl ester] | 1.3
9 | CC(=O)N1CCC(C(=O)N2C[C@H](c3ccc(Cl)c(Cl)c3)[C@@H](N(C)C(=O)Oc3ccc(F)cc3)C2)CC1 (racemic) [Example 65, rac-[(3R,4S)-1-(1-Acetyl-piperidine-4-carbonyl)-4-(3,4-dichloro-phenyl)-pyrrolidin-3-yl]-methyl-carbamic acid 4-fluoro-phenyl ester] | 0.7
10 | CN(C(=O)Oc1ccc(F)cc1)[C@@H]1CN(C(=O)C2CCN(C(=O)C3CCC(=O)NC3)CC2)C[C@H]1c1ccc(F)cc1 (stereo partly drawn) [Example 291, {(3S,4R)-4-(4-Fluoro-phenyl)-1-[1-(6-oxo-piperidine-3-carbonyl)-piperidine-4-carbonyl]-pyrrolidin-3-yl}-methyl-carbamic acid 4-fluoro-phenyl ester] | 144
11 | CN(C(=O)OCC1CCC(F)(F)C1)[C@H]1CN(C(=O)C2CCN(C(=O)C3(C)CC3)CC2)C[C@@H]1c1ccc(Cl)c(Cl)c1 (mixture of isomers) [Example 111, rac-{(3R,4S)-4-(3,4-Dichloro-phenyl)-1-[1-(1-methyl-cyclopropanecarbonyl)-piperidine-4-carbonyl]-pyrrolidin-3-yl}-methyl-carbamic acid 3,3-difluoro-cyclopentylmethyl ester] | 4.4
12 | CN(C(=O)Oc1ccc(F)cc1)[C@H]1CN(C(=O)C2CCN(C(=O)C3CCOCC3)CC2)C[C@@H]1c1ccc(Cl)c(Cl)c1 (racemic) [Example 76, rac-{(3R,4S)-4-(3,4-Dichloro-phenyl)-1-[1-(tetrahydro-pyran-4-carbonyl)-piperidine-4-carbonyl]-pyrrolidin-3-yl}-methyl-carbamic acid 4-fluoro-phenyl ester] | 0.7
13 | CN(C(=O)Oc1ccc(F)cc1)[C@@H]1CN(C(=O)C2CCN(C(=O)c3ccc(C(F)(F)F)cn3)CC2)C[C@H]1c1ccc(F)cc1 [Example 290, {(3S,4R)-4-(4-Fluoro-phenyl)-1-[1-(5-trifluoromethyl-pyridine-2-carbonyl)-piperidine-4-carbonyl]-pyrrolidin-3-yl}-methyl-carbamic acid 4-fluoro-phenyl ester] | 99.8
14 | CN(C(=O)Oc1ccc(F)cc1)[C@@H]1CN(C(=O)C2CCN(C(=O)CC#N)CC2)C[C@H]1c1ccc(F)cc1 [Example 284, [(3S,4R)-1-[1-(2-Cyano-acetyl)-piperidine-4-carbonyl]-4-(4-fluoro-phenyl)-pyrrolidin-3-yl]-methyl-carbamic acid 4-fluoro-phenyl ester] | 31.1
15 | CN(C(=O)Oc1ccc(F)cc1)[C@@H]1CN(C(=O)C2CCN(c3ncc(C#N)cn3)CC2)C[C@H]1c1ccc(Cl)cc1 [Example 192, {(3S,4R)-4-(4-Chloro-phenyl)-1-[1-(5-cyano-pyrimidin-2-yl)-piperidine-4-carbonyl]-pyrrolidin-3-yl}-methyl-carbamic acid 4-fluoro-phenyl ester] | 3.6
16 | CN(C(=O)Oc1ccc(F)cc1)[C@@H]1CN(C(=O)C2CCN(C(=O)C3(C)CC3)CC2)C[C@H]1c1ccc(Cl)cc1 [Example 39, {(3S,4R)-4-(4-Chloro-phenyl)-1-[1-(1-methyl-cyclopropanecarbonyl)-piperidine-4-carbonyl]-pyrrolidin-3-yl}-methyl-carbamic acid 4-fluoro-phenyl ester] | 11
17 | CN(C(=O)Oc1ccccc1)[C@H]1CN(C(=O)C2CCN(CC3CC3)CC2)C[C@@H]1c1ccc(Cl)c(Cl)c1 (racemic) [Example 7, rac-[(3R,4S)-1-(1-Cyclopropylmethyl-piperidine-4-carbonyl)-4-(3,4-dichloro-phenyl)-pyrrolidin-3-yl]-methyl-carbamic acid phenyl ester] | 9.6

Same assay, conditions: hNK-3 receptor affinity; membranes from HEK293 cells transiently expressing recombinant human NK3 receptor; [3H]SR142801; Cheng-Prussoff; read-out: Data Ki

Row | Ki [nM] | Compound
18 | 31 | CN(CCC1CC1)C(=O)N(C)[C@H]1CN(C(=O)C2CCN(C(=O)C3(C)CC3)CC2)C[C@@H]1c1ccc(Cl)c(Cl)c1 (racemic) [Example 97, rac-1-(2-Cyclopropyl-ethyl)-3-{(3R,4S)-4-(3,4-dichloro-phenyl)-1-[1-(1-methyl-cyclopropanecarbonyl)-piperidine-4-carbonyl]-pyrrolidin-3-yl}-1,3-dimethyl-urea]
19 | 53.6 | COCCCOC(=O)N(C)[C@@H]1CN(C(=O)C2CCN(c3ccc(C#N)cn3)CC2)C[C@H]1c1ccc(Cl)cc1 [Example 216, [(3S,4R)-4-(4-Chloro-phenyl)-1-(5′-cyano-3,4,5,6-tetrahydro-2H-[1,2′]bipyridinyl-4-carbonyl)-pyrrolidin-3-yl]-methyl-carbamic acid 3-methoxy-propyl ester]
20 | 0.7 | CN(C(=O)O[C@H]1CC[C@@H](C(F)(F)F)CC1)[C@@H]1CN(C(=O)C2CCN(C(=O)C3(C)CC3)CC2)C[C@H]1c1ccc(Cl)c(Cl)c1 [Example 108, {(3S,4R)-4-(3,4-Dichloro-phenyl)-1-[1-(1-methyl-cyclopropanecarbonyl)-piperidine-4-carbonyl]-pyrrolidin-3-yl}-methyl-carbamic acid 4-trifluoromethyl-cyclohexyl ester]
21 | 53.7 | CN(C(=O)Nc1ccc(F)cc1)[C@H]1CN(C(=O)C2CCN(C(=O)C3(C)CC3)CC2)C[C@@H]1c1ccc(Cl)cc1 (racemic) [Example 96, rac-1-{(3R,4S)-4-(4-Chloro-phenyl)-1-[1-(1-methyl-cyclopropanecarbonyl)-piperidine-4-carbonyl]-pyrrolidin-3-yl}-3-(4-fluoro-phenyl)-1-methyl-urea]
22 | 5.7 | CN(C(=O)OCC1CCOCC1)[C@@H]1CN(C(=O)C2CCN(c3ccc(C#N)cn3)CC2)C[C@H]1c1ccc(Cl)cc1 [Example 231, [(3S,4R)-4-(4-Chloro-phenyl)-1-(5′-cyano-3,4,5,6-tetrahydro-2H-[1,2′]bipyridinyl-4-carbonyl)-pyrrolidin-3-yl]-methyl-carbamic acid tetrahydro-pyran-4-ylmethyl ester]
23 | 47 | CN(C(=O)OC1CCC1)[C@@H]1CN(C(=O)C2CCN(c3ccc(C#N)cn3)CC2)C[C@H]1c1ccc(Cl)cc1 [Example 173, [(3S,4R)-4-(4-Chloro-phenyl)-1-(5′-cyano-3,4,5,6-tetrahydro-2H-[1,2′]bipyridinyl-4-carbonyl)-pyrrolidin-3-yl]-methyl-carbamic acid cyclobutyl ester]
